Measurements as given in patent US9518018B2, “3-alkoxy, thioalkyl and amino-4-amino-6-(substituted)picolinates and their use as herbicides” (Dow AgroSciences LLC, priority 2011, dated 2016).

Key:
Assay in all cases: Post-Emergent Test I herbicidal activity
Assay type in all cases: in vivo
ZEAMX: corn (Zea mays) = conditions: Zea mays, post-emergence, 336 h, read-out: Visual Growth Reduction (%)-14 Days after Application ZEAMX; for pest or weed control at 140 g/ha: Table 3, 140 g ai/ha; for pest or weed control at 70 g/ha: Table 3, 70 g ai/ha
Method: (§1) Seeds or nutlets of the desired test plant species were planted in Sun Gro Metro-Mix® 360 planting mixture, which typically has a pH of 6.0 to 6.8 and an organic matter content of about 30 percent, in plastic pots with a surface area of 64 square centimeters. When required to ensure good germination and healthy plants, a fungicide treatment and/or other chemical or physical treatment was applied. The plants were grown for 7-21 d in a greenhouse with an approximate 15 h photoperiod which was maintained at about 23-29° C. during the day and 22-28° C. during the night. Nutrients and water were added on a regular basis and supplemental lighting was provided with overhead metal halide 1000-Watt lamps as necessary. The plants were employed for testing when they reached the first or second true leaf stage.
(§2) A weighed amount, determined by the highest rate to be tested, of each test compound was placed in a 25 mL glass vial and was dissolved in 4 mL of a 97:3 v/v mixture of acetone and DMSO to obtain concentrated stock solutions. […] The concentrated stock solutions obtained were diluted with 20 mL of an aqueous mixture containing acetone, water, isopropyl alcohol, DMSO, Atplus 411F crop oil concentrate, and Triton® X-155 surfactant in a 48.5:39:10:1.5:1.0:0.02 v/v ratio to obtain spray solutions containing the highest application rates. Additional application rates were obtained by serial dilution of 12 mL of the high rate solution into a solution containing 2 mL of 97:3 v/v mixture of acetone and DMSO and 10 mL of an aqueous mixture containing acetone, water, isopropyl alcohol, DMSO, Atplus 411F crop oil concentrate, and Triton X-155 surfactant in a 48.5:39:10:1.5:1.0:0.02 v/v ratio to obtain ½×, ¼×, ⅛× and 1/16× rates of the high rate. Compound requirements are based upon a 12 mL application volume at a rate of 187 liters per hectare (L/ha). Formulated compounds were applied to the plant material with an overhead Mandel track sprayer equipped with 8002E nozzles calibrated to deliver 187 L/ha over an application area of 0.503 square meters at a spray height of 18 inches (43 cm) above the average plant canopy height. Control plants were sprayed in the same manner with the solvent blank.
(§3) The treated plants and control plants were placed in a greenhouse as described above and watered by subirrigation to prevent wash-off of the test compounds. After 14 d, the condition of the test plants as compared with that of the untreated plants was determined visually and scored on a scale of 0 to 100 percent where 0 corresponds to no injury and 100 corresponds to complete kill.
(§4) By applying the well-accepted probit analysis as described by J. Berkson in Journal of the […], 48, 565 (1953) and by D. Finney in “Probit Analysis” Cambridge University Press (1952), the above data can be used to calculate GR20, GR50 and GR80 values, which are defined as growth reduction factors that correspond to the effective dose of herbicide required to kill or control 20 percent, 50 percent or 80 percent, respectively, of a target plant.

[1] = tested on: EPHHL: wild poinsettia (Euphorbia heterophylla); conditions: post-emergence, 336 h, read-out: Visual Growth Reduction (%)-14 Days after Application EPHHL; for pest or weed control at 140 g/ha: Table 3, 140 g ai/ha; for pest or weed control at 70 g/ha: Table 3, 70 g ai/ha
Method: as §1, §2, §3, §4

[2] = tested on: CYPES: yellow nutsedge (Cyperus esculentus); conditions: post-emergence, 336 h, read-out: Visual Growth Reduction (%)-14 Days after Application CYPES; for pest or weed control at 140 g/ha: Table 3, 140 g ai/ha; for pest or weed control at 70 g/ha: Table 3, 70 g ai/ha
Method: as §1, §2, §3, §4

[3] = tested on: ECHCG: barnyardgrass (Echinochloa crus-galli); conditions: post-emergence, 336 h, read-out: Visual Growth Reduction (%)-14 Days after Application ECHCG; for pest or weed control at 140 g/ha: Table 3, 140 g ai/ha; for pest or weed control at 70 g/ha: Table 3, 70 g ai/ha
Method: as §1, §2, §3, §4

[4] = tested on: CHEAL: lambsquarters (Chenopodium album); conditions: Chenopodium album, post-emergence, 336 h, read-out: Visual Growth Reduction (%)-14 Days after Application CHEAL; for pest or weed control at 140 g/ha: Table 3, 140 g ai/ha; for pest or weed control at 70 g/ha: Table 3, 70 g ai/ha
Method: as §1, §2, §3, §4

[5] = tested on: ABUTH: velvetleaf (Abutilon theophrasti); conditions: Abutilon theophrasti, post-emergence, 336 h, read-out: Visual Growth Reduction (%)-14 Days after Application ABUTH; for pest or weed control at 140 g/ha: Table 3, 140 g ai/ha; for pest or weed control at 70 g/ha: Table 3, 70 g ai/ha
Method: as §1, §2, §3, §4

[6] = tested on: ORYSA: rice (Oryza sativa); conditions: post-emergence, 336 h, read-out: Visual Growth Reduction (%)-14 Days after Application ORYSA; for pest or weed control at 140 g/ha: Table 3, 140 g ai/ha; for pest or weed control at 70 g/ha: Table 3, 70 g ai/ha
Method: as §1, §2, §3, §4

Compound | pest or weed control at 140 g/ha (ZEAMX: corn (Zea mays)) | pest or weed control at 140 g/ha [1] | pest or weed control at 140 g/ha [2] | pest or weed control at 140 g/ha [3] | pest or weed control at 140 g/ha [4] | pest or weed control at 140 g/ha [5] | pest or weed control at 140 g/ha [6] | other results
COc1c(C(=O)O)nc(-c2ccc(Br)cc2F)c(F)c1N [Compound 61] | 75% | 100% | 100% | 95% | 100% | 80% | 10% | –
COC(=O)c1nc(-c2ccc(C#N)cc2)c(F)c(N)c1OC [Compound 41] | 70% | 100% | 100% | 0% | 100% | 80% | 0% | –
COC(=O)c1nc(-c2ccc(Cl)cc2)cc(N)c1OC [Compound 7, methyl 4-amino-6-(4-chlorophenyl)-3-methoxypicolinate] | 0% | 95% | 0% | 0% | 100% | 90% | 0% | –
COC(=O)c1nc(C(C)(F)F)cc(N)c1OC [Compound 81, methyl 4-amino-6-(1,1-difluoroethyl)-3-methoxypicolinate] | 0% | 60% | 0% | 0% | 80% | 10% | 0% | –
CCOC(=O)c1nc(-c2ccc(Cl)cc2F)cc(N)c1OCC(F)F [Compound 68] | – | – | – | – | – | – | – | pest or weed control at 180 g/ha (ZEAMX: corn (Zea mays); Table 3, 180 g ai/ha): 10%; pest or weed control at 180 g/ha ([1]; Table 3, 180 g ai/ha): 100%; pest or weed control at 180 g/ha ([2]; Table 3, 180 g ai/ha): 90%; pest or weed control at 180 g/ha ([3]; Table 3, 180 g ai/ha): 0%; pest or weed control at 180 g/ha ([4]; Table 3, 180 g ai/ha): 90%; pest or weed control at 180 g/ha ([5]; Table 3, 180 g ai/ha): 100%; pest or weed control at 180 g/ha ([6]; Table 3, 180 g ai/ha): 0%
COc1c(C(=O)O)nc(-c2ccc(I)cc2)c(F)c1N [Compound 55] | – | – | – | – | – | – | – | pest or weed control at 132 g/ha (ZEAMX: corn (Zea mays); Table 3, 132 g ai/ha): 80%; pest or weed control at 132 g/ha ([1]; Table 3, 132 g ai/ha): 100%; pest or weed control at 132 g/ha ([2]; Table 3, 132 g ai/ha): 100%; pest or weed control at 132 g/ha ([3]; Table 3, 132 g ai/ha): 100%; pest or weed control at 132 g/ha ([4]; Table 3, 132 g ai/ha): 90%; pest or weed control at 132 g/ha ([5]; Table 3, 132 g ai/ha): 85%; pest or weed control at 132 g/ha ([6]; Table 3, 132 g ai/ha): 10%
CCOC(=O)c1nc(-c2ccc(Cl)cc2F)cc(N)c1SCC(F)(F)F [Compound 89, Ethyl 4-amino-6-(4-chloro-2-fluorophenyl)-3-((2,2,2-trifluoroethyl)thio)picolinate] | 0% | 90% | 0% | 0% | 70% | 30% | 0% | –
COc1c(C(=O)O)nc(Cl)c(F)c1N [Compound 51] | – | – | – | – | – | – | – | pest or weed control at 70 g/ha (ZEAMX: corn (Zea mays)): 0%; pest or weed control at 70 g/ha [1]: 100%; pest or weed control at 70 g/ha [2]: 0%; pest or weed control at 70 g/ha [3]: 0%; pest or weed control at 70 g/ha [4]: 90%; pest or weed control at 70 g/ha [5]: 0%; pest or weed control at 70 g/ha [6]: 0%
COC(=O)c1nc(-c2ccc(C3CC3)nc2)c(F)c(N)c1OC [Compound 76, methyl 4-amino-6′-cyclopropyl-3-fluoro-5-methoxy-[2,3′-bipyridine]-6-carboxylate] | 50% | 97% | 95% | 0% | 80% | 85% | 0% | –
COc1c(C(=O)O)nc(-c2ccc(C(F)(F)F)c(F)c2)c(F)c1N [Compound 11, 4-amino-5-fluoro-6-(3-fluoro-4-(trifluoromethyl)phenyl)-3-methoxypicolinic acid] | 80% | 100% | 50% | 100% | 100% | 100% | 12% | –
COc1c(C(=O)O)nc(-c2ccc(Br)c(F)c2F)c(F)c1N [Compound 54] | – | – | – | – | – | – | – | pest or weed control at 70 g/ha (ZEAMX: corn (Zea mays)): 85%; pest or weed control at 70 g/ha [1]: 100%; pest or weed control at 70 g/ha [2]: 100%; pest or weed control at 70 g/ha [3]: 90%; pest or weed control at 70 g/ha [4]: 90%; pest or weed control at 70 g/ha [5]: 90%; pest or weed control at 70 g/ha [6]: 5%
COc1c(C(=O)O)nc(-c2ccc(Cl)c(C(C)F)c2F)c(F)c1N (stereo not shown) [Compound 65] | 70% | 100% | 100% | 65% | 100% | 100% | 0% | –
COC(=O)c1nc(-c2ccc(Br)c(F)c2F)c(F)c(N)c1OC [Compound 19, methyl 4-amino-6-(4-bromo-2,3-difluorophenyl)-5-fluoro-3-methoxypicolinate] | – | – | – | – | – | – | – | pest or weed control at 70 g/ha (ZEAMX: corn (Zea mays)): 70%; pest or weed control at 70 g/ha [1]: 100%; pest or weed control at 70 g/ha [2]: 90%; pest or weed control at 70 g/ha [3]: 75%; pest or weed control at 70 g/ha [4]: 100%; pest or weed control at 70 g/ha [5]: 85%; pest or weed control at 70 g/ha [6]: 0%
